Data reported in ChEMBL document CHEMBL2074125 (Drug Metabol Pharmacokin, 2002).

Legend:
[1] = biological target: T1, Solute carrier family 22 member 6 (Rattus norvegicus, UniProt O35956); assay: TP_TRANSPORTER: uptake in Xenopus laevis oocytes; assay type: functional, cell-based; conditions: oocyte
T1 sequence (O35956 whole entry): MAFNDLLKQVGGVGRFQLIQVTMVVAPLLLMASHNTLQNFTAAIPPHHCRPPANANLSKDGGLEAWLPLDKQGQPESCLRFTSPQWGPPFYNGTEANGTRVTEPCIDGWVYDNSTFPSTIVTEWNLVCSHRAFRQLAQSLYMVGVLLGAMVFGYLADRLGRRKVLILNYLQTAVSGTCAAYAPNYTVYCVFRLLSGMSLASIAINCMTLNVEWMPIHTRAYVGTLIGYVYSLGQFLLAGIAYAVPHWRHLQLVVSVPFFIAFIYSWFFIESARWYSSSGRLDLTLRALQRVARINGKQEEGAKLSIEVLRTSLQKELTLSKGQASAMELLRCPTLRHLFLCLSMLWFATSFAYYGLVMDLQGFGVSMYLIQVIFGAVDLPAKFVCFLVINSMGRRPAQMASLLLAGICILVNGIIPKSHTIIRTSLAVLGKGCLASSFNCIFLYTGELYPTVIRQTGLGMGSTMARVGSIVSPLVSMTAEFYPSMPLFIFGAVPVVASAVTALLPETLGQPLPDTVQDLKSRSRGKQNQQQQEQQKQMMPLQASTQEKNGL

[2] = biological target: T1, Solute carrier family 22 member 6; assay: TP_TRANSPORTER: inhibition of PAH uptake in Xenopus laevis oocytes; assay type: functional, cell-based, Oocyte

Row | Activity [1] | IC50 [2] [µM] | SMILES
1 | substrate [+] |  | CC1=C(C(=O)O)N2C(=O)[C@@H](NC(=O)[C@H](N)c3ccccc3)[C@H]2SC1 [CEPHALEXIN ANHYDROUS]
2 | substrate [+] | 718 | CN(C)CCn1nnnc1SCC1=C(C(=O)O)N2C(=O)[C@@H](NC(=O)Cc3csc(N)n3)[C@H]2SC1 [CEFOTIAM]
